{"source": "patent US20210308270A1", "about": "“SYSTEMS AND METHODS FOR INTRACELLULAR DELIVERY VIA NON-CHARGED SEQUENCE-DEFINED CELL-PENETRATING OLIGOMERS” (priority 2018, published 2021)", "key": {"[1]": {"test_system": "Listeria monocytogenes DP-L1942", "assay": "In vitro intracellular infection assay in J774 cells", "assay_type": "cell-based", "procedure": "In vitro Intracellular Infection Assay: 100,000 cells/well J774 cells in DMEM supplemented with 10% FBS without pen-strep, referred to as normal growth media, were plated in a 24-well plate and incubated for 20-24 hrs before use. Listeria monocytogenes DP-L1942 strain was taken from an exponentially growing culture (OD600 of ˜0.5) and washed with 1×PBS pH 7.4. Macrophages were infected with 200,000 bacteria in normal growth media to achieve an initial infection of approximately two bacteria per cell (MOI=2). The cells were washed twice with PBS at 30 mins after infection and supplemented with normal growth media. At 1-hr post infection, gentamicin (50 μg/ml) was added to eliminate all extracellular bacteria. The cells were then washed twice with PBS after 30 mins of incubation and supplemented with normal growth media. At 2-hr post infection, 30 μM of CPOT-vancomycin conjugates were added to the infected cells and incubated for 4 hrs. At the end of the incubation period, macrophages were washed twice with PBS, and the cells were lysed with 0.1% Triton-X in PBS. The cell lysate was diluted 10× in Brain Heart Infusion (BHI) broth and plated in a 96-well plate. The plate was incubated at 37° C. with agitation. The growth curve kinetics were generated from the absorbance measurements at 600 nm taken every 5 mins for 14 hrs."}, "HeLa cells [2]": {"test_system": "HeLa cells", "assay": "Live-cell confocal microscopy and time-lapse imaging", "assay_type": "cell-based, human", "procedure": "Live-Cell confocal microscopy: 70,000 HeLa cells/chamber were plated in a 4-chamber 35-mm glass-bottom microwell dish ([…]) and cultured at 37° C. for 20-24 hrs. […] For co-localization experiments, cells were incubated with fluorescein conjugates along with 150 nM Transferrin-Alexa Fluor 647, or 150 μM Dextran-Alexa Fluor 647 for 1 hr at 37° C. Cells were gently washed 3 times with PBS, and FluoroBrite DMEM Media supplemented with 10% FBS was added to each chamber for imaging. Images were taken on a Zeiss LSM880 live-cell confocal/multiphoton inverted microscope, equipped with a 63× oil objective, with 488-nm and 633-nm lasers enabled for fluorescein and Transferrin-Alexa Fluor 647/Dextran-Alexa Fluor 647, respectively. Images were processed using Fiji software. Time-lapse live-cell imaging: 70,000 HeLa cells/chamber were plated in a 4-chamber 35-mm glass-bottom microwell dish ([…]) and cultured at 37° C. for 20-24 hrs. […] Images were taken on a Zeiss LSM880 live-cell confocal/multiphoton inverted microscope, equipped with a 63× oil objective, with 488-nm laser enabled for fluorescein. Images were processed using Fiji software."}, "MC-3T3-E1 cells": {"test_system": "MC-3T3-E1 cells", "assay": "Uptake of fluorescein cargo by oligoTEAs, flow cytometry, MC-3T3-E1", "assay_type": "cell-based", "conditions": "5 μM, 1 hr", "procedure": "(§1) After the incubation, cells were washed with PBS. […] Results were analyzed by FlowJo software."}, "SKOV-3 cells": {"test_system": "SKOV-3 cells", "assay": "Cellular uptake of fluorescein conjugates by flow cytometry, SKOV-3", "assay_type": "cell-based, human", "procedure": "(§2) After the incubation, cells were washed with PBS and incubated with 200 μL of Trypsin EDTA at 37° C. for 3-5 mins. 1 mL of DMEM with 10% FBS was then added to quench the trypsin. […] Results were analyzed by FlowJo software.\n(§3) Mechanism of uptake: The standard uptake procedure was followed with the following changes for each mechanistic condition. Readings were taken on a FACSAria™ Fusion flow cytometry analyzer (Becton Dickinson).\n(§4) Temperature dependence: Prior to treatment, fluorescein conjugates were incubated with DMEM with 10% FBS in Eppendorf® tubes for 30 mins at 37° C. or 4° C. Cells were washed with warm (37° C.) or cool (4° C.) PBS for 5 mins. Pre-warmed or pre-cooled fluorescein conjugate solution was then added, and cells were incubated at 37° C. or refrigerated at 4° C. for 1 hr. Following treatment, cells were washed with PBS before addition of Trypsin EDTA.\n(§5) Uptake with and without NaN3 and 2-deoxy-D-glucose (DOG): Prior to treatment, cells were washed with PBS. Cells were then incubated with 10 mM NaN3 and 25 mM DOG in DMEM with 10% FBS at 37° C. for 1 hr. Fluorescein conjugates were added, and cells were incubated at 37° C. for another hour. Following treatment, cells were washed with PBS before addition of Trypsin EDTA.\n(§6) Uptake with and without chlorpromazine (CPM): Prior to treatment, cells were washed with PBS. […]"}, "HeLa cells [3]": {"test_system": "HeLa cells", "assay": "Cellular uptake of fluorescein conjugates by flow cytometry, HeLa", "assay_type": "cell-based, human", "procedure": "as §2\nDose-dependent uptake: The standard uptake procedure was followed, except that cells were treated with the labeled oligoTEAs at 0.5 μM to 5 μM. All other conditions remained the same.\nUptake kinetics study: The standard uptake procedure was followed, except that cells were treated with fluorescein-PEO^2-B at 2.5 μM for 15-120 mins (minutes). After the incubation, the plate was cells were washed with PBS and incubated with 200 μL of Trypsin EDTA at 37° C. for 3-5 mins. All other conditions remained the same.\nas §3\nUptake with and without serum: Prior to treatment, cells were washed with PBS. Cells were then incubated with fluorescein conjugates in either DMEM with 10% FBS or Opti-MEM at 37° C. for 1 hr. Following treatment, cells were washed with PBS before addition of Trypsin EDTA.\nPretreatment with heparin sulfate: Prior to treatment, fluorescein conjugates were incubated with different concentrations of heparin sulfate and DMEM with 10% FBS in Eppendorf® tubes for 30 mins at 37° C. Cells were washed with PBS, and incubated with the treatment solutions at 37° C. for 1 hr. Following treatment, cells were washed with PBS once more before addition of Trypsin EDTA.\nas §4, §5\nas §5, with “chlorpromazine (CPM):” for “NaN3 and 2-deoxy-D-glucose (DOG):”, “5 μg/mL (or 15.7 μM) CPM” for “10 mM NaN3 and 25 mM DOG”, “EDTA. […]” for “EDTA.”"}, "HEK293 cells": {"test_system": "HEK293 cells", "assay": "Cellular uptake of fluorescein conjugates by flow cytometry, HEK293", "assay_type": "cell-based, human", "procedure": "as §2, §3, §4, §5, §6"}, "J774 cells": {"test_system": "J774 cells", "assay": "Uptake of fluorescein cargo by oligoTEAs, flow cytometry, J774", "assay_type": "cell-based", "conditions": "5 μM, 1 hr", "procedure": "as §1"}}}
{"compound": "O=C(O)c1cn(C2CC2)c2cc(N3CCNCC3)c(F)cc2c1=O", "note": "[Ciprofloxacin]", "values": [{"measurement": "inhibition at 30 µM", "setting": "[1]; Listeria monocytogenes, DPL1942, J774, 4 h, read-out: inhibition of bacteria growth", "result": "> 80", "unit": "%"}]}
{"compound": "fluorescein acid", "values": [{"measurement": "internalization in time-lapse live cell imaging", "setting": "HeLa cells [2]; 2.5 μM, trypan blue present, 60 mins", "result": "no internalization"}]}
{"compound": "CN[C@H](CC(C)C)C(=O)N[C@H]1C(=O)N[C@@H](CC(N)=O)C(=O)N[C@H]2C(=O)N[C@H]3C(=O)N[C@H](C(=O)N[C@H](C(=O)O)c4cc(O)cc(O)c4-c4cc3ccc4O)[C@H](O)c3ccc(c(Cl)c3)Oc3cc2cc(c3O[C@@H]2O[C@H](CO)[C@@H](O)[C@H](O)[C@H]2O[C@H]2C[C@](C)(N)[C@H](O)[C@H](C)O2)Oc2ccc(cc2Cl)[C@H]1O", "note": "[vancomycin]", "values": [{"measurement": "inhibition of bacteria growth", "setting": "[1]; 30 μM, 4 hrs treatment, 14th hour of growth curve", "result": "little to no effect on bacteria growth"}]}
{"compound": "Ac-RRRRRRRRRK-Am (Ac-RRRRRRRRRK-NH2) [R9, widely used cationic CPP, purchased from GenScript]", "values": [{"measurement": "trend of uptake of fluorescein cargo", "setting": "MC-3T3-E1 cells", "result": "R9 (PEG-Bu)4>(BDT-PEG)4>(BDT-PEG4)4˜(PEG-PEG)4"}, {"measurement": "subcellular distribution", "setting": "HeLa cells [2]; 5 μM fluorescein conjugate, 1 hr, 63×", "result": "primarily as punctate spots"}, {"measurement": "temperature dependence of uptake, 4° C. vs 37° C.", "setting": "SKOV-3 cells", "result": "weaker dependence on temperature"}, {"measurement": "temperature dependence of uptake, 4° C. vs 37° C.", "setting": "HeLa cells [3]", "result": "weaker dependence on temperature"}, {"measurement": "increase of uptake in the absence of serum", "setting": "HeLa cells [3]; Opti-MEM vs DMEM with 10% FBS", "result": 2, "unit": "fold"}, {"measurement": "effect of endocytosis inhibitors on uptake", "setting": "HeLa cells [3]; chlorpromazine (clathrin), filipin III (caveolae), cytochalasin D (macropinocytosis)", "result": "dependence on clathrin in HeLa cells and macropinocytosis in both HEK293 and HeLa cells"}, {"measurement": "decrease of uptake in the presence of heparin sulfate", "setting": "HeLa cells [3]; conjugate pretreated with heparin sulfate 30 mins", "result": 6, "unit": "fold"}, {"measurement": "temperature dependence of uptake, 4° C. vs 37° C.", "setting": "HEK293 cells", "result": "weaker dependence on temperature"}, {"measurement": "effect of endocytosis inhibitors on uptake", "setting": "HEK293 cells; chlorpromazine, filipin III, cytochalasin D", "result": "macropinocytosis in both HEK293 and HeLa cells"}, {"measurement": "trend of uptake of fluorescein cargo", "setting": "J774 cells", "result": "R9 (PEG-Bu)4>(BDT-PEG)4>(BDT-PEG4)4˜(PEG-PEG)4"}]}
